# Laboratory results reported in US20130338222A1, “METHODS FOR C[…] MITES” (SYNGENTA CROP PROTECTION LLC, priority 2010, published 2013).
# System: Varroa destructor
# Experiment: Varroa mite contact test on Potter-tower-treated Petri dishes, mortality after 72 h
# Assay type: in vivo
# Details: adult V. destructor, 20 mites (4 dishes of 5), assessed after 72 h
# Source text: Varroa mites came from bee colonies provided by a beekeeper. The mite population is kept in a dedicated apiary. For screening needs adults are collected on the same day as the beginning of experiment, either in beehive cells containing brood of worker bees or drones, or directly on bees emerging during collection.
# Bee nymphs needed to feed adults of Varroa mites during experiments are choosen within the frames from which Varroa is also collected. They are collected at the stage of nymph with white or pink coloured eyes according methology described by Rembold et Kremer (Characterization of postembryonic developmental stages of the female castes of the honey bee, Apis mellifera L. Apidologie 11: 29-38).
# 3 cm diameter Petri dishes were used as confinement material of Varroa mites during experiments. Covers with wire mesh were put on the top of each Petri dish in order to avoid the mites to run away but also to keep favorable humidity for the bee nymph. […]
# After treatment of Petri dishes, five (5) adults of V. destructor collected from the brood were placed in the petri dish. […] Mortality levels are assessed after 72 h (mites which are able to move their legs are considered as alive). […]
SMILES,"% mortality of Varroa (formulation SC240, concentration 1.25 microlitre) [%]","% mortality of Varroa (formulation SC240, concentration 0.8 microlitre) [%]"
"CCC(C)(C)C(=O)OC1=C(c2ccc(Cl)cc2Cl)C(=O)OC12CCCCC2 [spirodiclofen, 3-(2,4-dichlorophenyl)-2-oxo-1-oxaspiro[4.5]dec-3-en-4-yl 2,2-dimethylbutyrate]",100,–
"Cc1cc(C)c(C2=C(OC(=O)CC(C)(C)C)C3(CCCC3)OC2=O)c(C)c1 [spiromesifen, 3-mesityl-2-oxo-1-oxaspiro[4.4]non-3-en-4-yl 3,3-dimethylbutyrate]",–,100
